Molecules are shown by their SMILES. Some results are limits rather than exact numbers.

A word on the IC50: it is the point on the concentration scale where inhibition reaches its midpoint. A low value points to inhibition by little substance.

T1 sequence (P02829 whole entry, looked up): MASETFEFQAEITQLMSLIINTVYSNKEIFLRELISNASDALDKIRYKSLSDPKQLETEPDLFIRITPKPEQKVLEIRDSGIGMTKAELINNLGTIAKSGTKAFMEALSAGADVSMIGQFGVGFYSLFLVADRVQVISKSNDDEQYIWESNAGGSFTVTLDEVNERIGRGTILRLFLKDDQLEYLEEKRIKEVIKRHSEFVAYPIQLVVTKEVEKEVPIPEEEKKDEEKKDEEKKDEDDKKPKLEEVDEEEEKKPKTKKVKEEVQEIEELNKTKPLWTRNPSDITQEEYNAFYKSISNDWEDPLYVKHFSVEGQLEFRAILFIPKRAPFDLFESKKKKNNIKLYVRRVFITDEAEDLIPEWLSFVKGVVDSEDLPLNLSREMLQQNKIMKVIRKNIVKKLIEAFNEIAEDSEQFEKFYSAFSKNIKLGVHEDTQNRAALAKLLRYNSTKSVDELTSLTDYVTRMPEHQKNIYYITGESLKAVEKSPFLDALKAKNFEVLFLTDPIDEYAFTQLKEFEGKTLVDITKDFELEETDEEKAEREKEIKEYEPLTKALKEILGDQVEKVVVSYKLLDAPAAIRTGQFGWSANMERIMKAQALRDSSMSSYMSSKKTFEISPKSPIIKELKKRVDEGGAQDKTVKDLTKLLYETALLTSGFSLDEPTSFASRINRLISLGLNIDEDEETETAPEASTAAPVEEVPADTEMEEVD

Test system in the first test: not listed separately
Put plainly: Sulforhodamine B (SRB) growth inhibition / cytotoxicity assay. It is filed as cell-based. As to conditions: SRB growth arrest assay; cell line not stated. The method, then:
A growth inhibition assay was also employed for the evaluation of candidate HSP90 inhibitors:
• 1) Determine cell number by haemocytometer. • 2) Using an 8 channel multipipettor, add 160 μl of the cell suspension (3600 cells/well or 2×10^4 cells/ml) to each well of a 96-well microtitre plate. • 3) Incubate overnight at 37° C. in a CO2 incubator. Day 2 • 4) Stock solutions of drugs are prepared, and serial dilutions of each drug are performed in medium to give final concentrations in wells. • 5) Using a multipipettor, 40 μl of drug (at 5× final concentration) is added to quadruplicate wells. • 6) Control wells are at either side of the 96 well plates, where 40 μl of medium is added. • 7) Incubate plates in CO2 incubator for 4 days (48 hours). Day 6 • 8) Tip off medium into sink and immerse plate slowly into 10% ice cold trichloroacetic acid (TCA). […] Leave for 15 mins. • 12) Wash off unbound SRB stain with four washes of 1% acetic acid. • 13) Dry plates in incubator. • 14) Solubilise SRB using 100 μl of 10 mM Tris base and put plates on plate shaker for 5 mins. • 15) Determine absorbance at 540 nm using a plate reader. Calculate mean absorbance for quadruplicate wells and express as a percentage of value for control, untreated wells. • 16) Plot % absorbance values versus log drug concentration and determine the IC50.
In the case of `CC(=O)c1ccc(NC(=O)c2c[nH]nc2-c2cc(Cl)c(O)cc2O)cc1` [Example 1, 3-(5-chloro-2,4-dihydroxy-phenyl)-1H-pyrazole-4-carboxylic acid (4-acetyl-phenyl)-amide], the IC50 is above 50 µM.

A further test addresses T1, yeast HSP90 (Saccharomyces cerevisiae, UniProt P02829).
T1 construct: made in house; host or cells: E. coli
In words: Malachite green ATPase assay. It is filed as biochemical. As to conditions: activity range. The text has this:
The intrinsic ATPase activity of HSP90 may be measured using yeast HSP90 as a model system. The assay, based on the use of malachite green for the measurement of inorganic phosphate, was used to test the HSP90 inhibitory activity of the compounds of the Examples herein.
Malachite Green ATPase Assay
Chemicals are of the highest purity commercially available and all aqueous solutions are made up in AR water. Because of the need to minimise contamination with inorganic phosphate, precautions should be taken with solutions and apparatus used in the assays. Glassware and pH meters are rinsed with double distilled or deionised water before use and, wherever possible, plastic ware should be used. Gloves are worn for all procedures. • (1) Greiner 384-well (Greiner 781101) or Costar 384-well flat-bottomed polystyrene multiwell plates (VWR). • (2) Assay buffer of (a) 100 mM Tris-HCl, pH 7.4, (b) 150 mM KCI, (c) 6 mM MgCl2. Stored at room temperature. • (3) 0.0812% (w/v) malachite green (M 9636, Sigma Aldrich Ltd., Poole, UK). Stored at room temperature. • (4) 2.32% (w/v) polyvinyl alcohol USP (P 1097, Sigma Aldrich Ltd, Poole, UK) in boiling water (see Comment 1), allowed to cool, and stored at room temperature. • (5) 5.72% (w/v) ammonium molybdate in 6 M hydrochloric acid. Stored at room temperature. • (6) 34% (w/v) sodium citrate. Stored at room temperature. • (7) 100 mM ATP, disodium salt, special quality (47699, Sigma Aldrich). Stored at −20° C. • (8) E. coli expressed yeast HSP90 protein, purified >95% (see, e.g., Panaretou et al., 1998) and stored in 50 uL aliquots at −80° C. Method • 1. Dilute test compounds to 500 μM in AR water (DMSO concentration will be 2.5%). Transfer 2.5 μl of these compounds directly from the daughter plate to the assay plate, giving a final assay concentration of 100 μM. To obtain 12 point IC50 values, perform serial dilutions 1:2 to produce a range of assay concentrations from 100 μM to 97.6 nM (2.5% DMSO), and transfer 2.5 μl of each concentration into the assay plate. Column 1 in the assay plate contains no compound, as a negative control. An additional row with no compound is also used as a background. • 2. Prepare ATP by diluting 100 mM stock to 925 μM with assay buffer, and aliquot 5 μl of diluted ATP to each well including controls (final assay concentration 370 μM). • 3. Add 5 μl of buffer to background row. • 4. Dilute enzyme preparation to 1.05 μM with assay buffer, and aliquot 5 μl into each compound well and to the negative control column. • 5. Collect the reagents to the bottom of the well, cover plate with plate seal and incubate overnight at 37 degC. • 6. First thing in the morning prepare the Malachite Green Reagent. Add 2 parts of Malachite Green Solution, 1 part of Polyvinyl Alcohol Solution, 1 part of Ammonium Molybdate Solution, and 2 parts of AR water. • 7. Invert to mix, and leave for approximately 1 hour until the colour turns from brown to golden yellow. • 8. Add 40 μl of Malachite Green Reagent to each well, allow 5 mins for colour to develop. • 9. Add 5 μl of Sodium Citrate Reagent to each well (see comment 2) • 10. Re-cover with plate seal and shake on plate shaker for at least 15 mins. • 11. Measure Absorbance at 620 nm using a suitable plate reader (e.g. Victor, Perkin Elmer Life Sciences, Milton Keynes, UK). […] Comments • (1) The polyvinyl alcohol dissolves in boiling water with difficulty and stirring for 2-3 h is required. • (2) The time interval between addition of the malachite green reagent and the sodium citrate should be kept as short as possible in order to reduce the non-enzymatic hydrolysis of ATP. Once the sodium citrate is added, the colour is stable for up to 4 h at room temperature. • (3) Compounds can be added to the assay plates using a Biomek FX Robot (Beckman Coulter).
In turn, `O=C(c1c[nH]nc1-c1cc(Cl)c(O)cc1O)N1CCOCC1` [Example 5] yielded an IC50 above 50 µM.

`O=C(Nc1ccc2c(c1)OCCO2)c1c[nH]nc1-c1cc(Cl)c(O)cc1O` [Example 15]: the IC50 is below 50 µM.

`O=C(NCc1ccc(Cl)cc1)c1c[nH]nc1-c1cc(Cl)c(O)cc1O` [Example 30] came in with an IC50 below 50 µM.

As for `CS(=O)(=O)c1ccc(CNC(=O)c2c[nH]nc2-c2cc(Cl)c(O)cc2O)cc1` [Example 33], the IC50 is below 50 µM.

`COC(=O)c1ccc(NC(=O)c2c[nH]nc2-c2cc(Cl)c(O)cc2O)cc1` [Example 20] showed a half-maximal inhibitory concentration (IC50) below 50 µM.

The compound `O=C(NCCCN1CCOCC1)c1c[nH]nc1-c1cc(Cl)c(O)cc1O` [Example 7] had an IC50 above 50 µM.

For `O=C(NCCCO)c1c[nH]nc1-c1cc(Cl)c(O)cc1O` [Example 12], the IC50 is above 50 µM.

For `Cc1ccc(CNC(=O)c2c[nH]nc2-c2cc(Cl)c(O)cc2O)cc1` [Example 27], the IC50 was below 50 µM.

`O=C(NCCN1CCOCC1)c1c[nH]nc1-c1cc(Cl)c(O)cc1O` [Example 11] registered an IC50 above 50 µM.

Take `O=C(Nc1ccc(O)c(O)c1)c1c[nH]nc1-c1cc(Cl)c(O)cc1O` [Example 16]: the IC50 was above 50 µM.

`O=C(O)Cc1ccc(NC(=O)c2c[nH]nc2-c2cc(Cl)c(O)cc2O)cc1` [Example 24] had an IC50 above 50 µM.

`COc1ccc(NC(=O)c2c[nH]nc2-c2cc(Cl)c(O)cc2O)cc1` [Example 17]: the IC50 is below 50 µM.

Regarding `NC(=O)c1ccc(NC(=O)c2c[nH]nc2-c2cc(Cl)c(O)cc2O)cc1` [Example 22], the IC50 is below 50 µM.

`COc1ccc(N(C)C(=O)c2c[nH]nc2-c2cc(Cl)c(O)cc2O)cc1` [Example 25]: the IC50 is above 50 µM.

In turn, `O=C(Nc1ccccn1)c1c[nH]nc1-c1cc(Cl)c(O)cc1O` [Example 8] showed an IC50 above 50 µM.

Compound `O=C(c1c[nH]nc1-c1cc(Cl)c(O)cc1O)N1CCN(c2ccccc2)CC1` [Example 3] returned an IC50 above 50 µM.

In the case of `O=C(NCc1ccc(F)cc1)c1c[nH]nc1-c1cc(Cl)c(O)cc1O` [Example 29], the 50% inhibitory concentration (IC50) was below 50 µM.

Compound `O=C(NCc1ccccc1)c1c[nH]nc1-c1cc(Cl)c(O)cc1O` [Example 23] showed an IC50 above 50 µM.

In turn, `O=C(Nc1ccc(O)cc1)c1c[nH]nc1-c1cc(Cl)c(O)cc1O` [Example 13] gave an IC50 below 50 µM.

Regarding `CC(=O)Nc1ccc(NC(=O)c2c[nH]nc2-c2cc(Cl)c(O)cc2O)cc1` [Example 19], the IC50 was above 50 µM.

As for `O=C(Nc1ccc(Cl)cc1)c1c[nH]nc1-c1cc(Cl)c(O)cc1O` [Example 18], the IC50 is above 50 µM.

The compound `O=C(NCc1ccco1)c1c[nH]nc1-c1cc(Cl)c(O)cc1O` [Example 9] displayed an IC50 below 50 µM.

`O=C(O)c1ccc(CNC(=O)c2c[nH]nc2-c2cc(Cl)c(O)cc2O)cc1` [Example 26] came in with an IC50 below 50 µM.

Regarding `CN1CCN(C(=O)c2c[nH]nc2-c2cc(Cl)c(O)cc2O)CC1` [Example 6], the IC50 was above 50 µM.

Consider `O=C(Nc1ccccc1)c1c[nH]nc1-c1cc(Cl)c(O)cc1O` [Example 2], for which the IC50 is above 50 µM.

As for `C=CCNC(=O)c1c[nH]nc1-c1cc(Cl)c(O)cc1O` [Example 4], the IC50 was above 50 µM.

In turn, `COc1ccc(CNC(=O)c2c[nH]nc2-c2cc(Cl)c(O)cc2O)cc1` [Example 28] showed an IC50 below 50 µM.

Take `O=C(NCc1cccc(C(F)(F)F)c1)c1c[nH]nc1-c1cc(Cl)c(O)cc1O` [Example 32]: the IC50 was below 50 µM.

In the case of `O=C(NCCc1cccs1)c1c[nH]nc1-c1cc(Cl)c(O)cc1O` [Example 10], the IC50 was below 50 µM.

`COc1cccc(NC(=O)c2c[nH]nc2-c2cc(Cl)c(O)cc2O)c1` [Example 14] returned an IC50 below 50 µM.

With `COc1cccc(CNC(=O)c2c[nH]nc2-c2cc(Cl)c(O)cc2O)c1` [Example 31], the IC50 is below 50 µM.
